Source: US12643102B2, “Method of profiling a sample comprising a plurality of cells and a system for performing the same” (Massachusetts Institute of Technology, priority 2020, dated 2026)

Test system: WBCs from whole blood
Assay: DLD assay: WBC biophysical profiling (size Dapp, deformability CDMdot) after in vitro activation of whole blood
Assay type: cell-based
Details: for WBC Dapp (average of L and L^-1 DLD assays): 2 hours incubation, undiluted whole blood at 37° C., 2.5 μL/min, n=5, healthy baseline 9.7±0.1 μm; for increase in WBC Dapp: 2 hours, versus healthy baseline
Protocol: The open reservoirs 102A, 102B and 102C facilitate easy sample loading, sample resuspension to prevent settling of cells and washing the reservoir to reuse the device. The required loaded volume per run is 10 μL and the reservoir can hold up to 25 μL of blood. As the fluid is withdrawn, the sample flows through a region comprising 21 DLD device segments sandwiched between two 1× phosphate-buffered saline (PBS) buffer streams (see Table 2). Each segment comprises an array of pillars and has a specific DLD critical cut-off size (Dc) determined by the empirical Equation (1): […]
where G is the regular spacing between pillars and θ is the gradient of the pillar array. This design is known as a chirped DLD array where each downstream segment has an increasing pillar row-shift gradient corresponding to an increasing Dc ranging from 6.0 to 16.0 μm in steps of 0.5 μm (see Methods). Immune cells flowing through the device 100 are deflected laterally only within DLD segments where cell sizes are larger than Dc; the cells therefore exit the device 100 at defined lateral positions depicted in the output region shown in FIG. 1A. The output of the sorting forms a spectrum in its size distribution (i.e., a biophysical parameter based on a distribution profile of the cells sorted by the array of pillars).
To evaluate the biophysical combinatorial immune profiling potential of DLD assay, a single biophysical size and deformability parameter is determined. For size parameters, the average Dapp for L and L^−1 assays was quantified at 2.5 μL/min, while a single cell deformability parameter (CDMdot) was emphasized by taking the product of the CDML and CDML^−1 measurements. Performing a product amplifies the deformability differences compared to CDML and CDML^−1 measurements individually (see FIG. 8). By combining the measurements of two DLD devices, a unique leukocyte biophysical fingerprint as a profiling tool to measure different states of WBC from whole blood in real-time was envisioned (see FIG. 1B).
Direct sample measurements enable the study of WBC biophysical profiles in different health states of an individual for healthy donors, patients admitted to the ED without signs of infection (ED Control), and patients with clear signs of infection and fulfilling at least two SIRS criteria (ED≥2 SIRS) (See Table 3). The second group are tests performed on blood, which have undergone external or in vitro test conditions to activate the WBCs. These include 5 ng/ml lipopolysaccharide (LPS), which mimics the bacteria coat that would trigger inflammation and phorbol 12-myristate 13-acetate (PMA) at 100 and 1000 nM, a known activator of WBCs. […]

CCCCCCCCCCCCCC(=O)O[C@@H]1[C@@H](C)[C@@]2(O)[C@@H](C=C(CO)C[C@]3(O)C(=O)C(C)=C[C@@H]23)[C@@H]2C(C)(C)[C@]12OC(C)=O [PMA, phorbol 12-myristate 13-acetate]
WBC Dapp (average of L and L^-1 DLD assays) (PMA 100 nM): 12.6±0.8 μm | increase in WBC Dapp (PMA 100 nM): 30% | WBC Dapp (average of L and L^-1 DLD assays) (PMA 1000 nM): 13.9±0.7 μm | increase in WBC Dapp (PMA 1000 nM): 43%
